Values quoted from earlier work, collected in patent US20120316143A1, “Ophthalmic composition” (priority 2009, published 2012).
Read-outs that look alike come from different tables or passages of the source.

Experiments:
[1] = tested on: normal subjects; patients with ocular hypertension
patients = details: applied topically as a 1% suspension
[2] = tested on: rabbits made ocularly hypertensive with dexamethasone

CC1(C)[C@@H](OC(=O)CCC(=O)O)CC[C@]2(C)[C@H]3C(=O)C=C4[C@@H]5C[C@@](C)(C(=O)O)CC[C@]5(C)CC[C@@]4(C)[C@]3(C)CC[C@@H]12 [Carbenoxolone]
decrease in intraocular pressure ([1]; normal subjects): 20% | decrease in intraocular pressure ([1]; patients with ocular hypertension): 20%

C[C@]12CC[C@@H](O)C[C@H]1CC[C@@H]1[C@@H]2[C@@H](O)C[C@@]2(C)[C@H]1CC[C@]2(O)C(=O)CO [3-α-5-β-Tetrahydrocortisol]
effect on intraocular pressure (patients): lower intraocular pressure

C[C@]12CC[C@@H](O)C[C@H]1CC[C@@H]1[C@@H]2[C@@H](O)C[C@@]2(C)[C@H]1CC[C@]2(O)C(=O)CO [Tetrahydrocortisol, tetrahydrocortisol]
effect on intraocular pressure (IOP) [2]: lower intraocular pressure
